According to patent publication US10106515B2, “1-(cyclopent-2-en-1-yl)-3-(2-hydroxy-3-(arylsulfonyl)phenyl)urea derivatives as CXCR2 inhibitors” (GLAXOSMITHKLINE INTELLECTUAL PROPERTY DEVELOPMENT LIMITED, priority 2014, dated 2018):
Counter-ions that a name gives are not always drawn. Like-named read-outs stand apart in the source and are kept apart here.

Key:
[1] = target: T1, recombinant human CXCR2 (Homo sapiens, UniProt P25025); test: CXCR2 Tango assay; assay type: cell-based; conditions: mean pIC50 of multiple test results; stimulated with 80 nM hCXCL1; reporter gene blue/green emission ratio; read-out: pIC50 (CXCR2 Tango assay) (converted)
T1 construct: TEV protease site; Gal4-VP16 transcription factor
T1 sequence (P25025 1-360): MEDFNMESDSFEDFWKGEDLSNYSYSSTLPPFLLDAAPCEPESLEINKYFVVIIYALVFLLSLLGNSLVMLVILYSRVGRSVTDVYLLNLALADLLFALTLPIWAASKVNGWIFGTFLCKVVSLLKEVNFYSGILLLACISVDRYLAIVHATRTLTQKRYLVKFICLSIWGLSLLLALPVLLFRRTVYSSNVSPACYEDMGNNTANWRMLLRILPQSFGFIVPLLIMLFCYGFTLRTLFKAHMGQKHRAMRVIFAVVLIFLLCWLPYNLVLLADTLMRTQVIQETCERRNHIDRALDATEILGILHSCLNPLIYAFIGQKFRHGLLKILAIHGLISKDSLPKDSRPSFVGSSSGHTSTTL
Outline: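 Mean pIC50 comes from sigmoidal fits of the blue/green (460/530 nm) CCF4-AM ratio, normalized between hCXCL1-stimulated and DMSO controls. Compounds in 10-point dose response were incubated overnight at 37 °C with recombinant human CXCR2 Tango cells (~10,000/well) and 80 nM hCXCL1, with reporter read-out via arrestin-TEV release of Gal4-VP16.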

[2] = tested on: upregulation of CD11b in GROα stimulated neutrophils in human whole blood; test: Human whole blood assay (CD11b upregulation); assay type: cell-based; conditions: Neutrophil, inhibition of CD11b upregulation, GROα 33 nM final, flow cytometry, read-out: pIC50 (human whole blood assay) (converted)
Method: The whole blood assay tested the compounds' ability to inhibit the upregulation of CD11b in GROα stimulated neutrophils in human whole blood.
Blood was withdrawn by venipuncture from consented adults and poured into a Sterilin tube containing an anti-coagulant Heparin (10 uL/mL of blood). All the test compounds were dissolved in DMSO to 4 mM and serial diluted across the plate, 1 in 3 to provide 10 point dose response curves. The compounds were then diluted 100 fold in -PBS [Phosphate buffered saline (without Calcium Chloride and Magnesium Chloride)] after which, 1 uL was dispensed in 96 U bottom Costar plates using an FX.
10 uL of blood was transferred to the compound plate using a multi-channel pipette, gently tapped and incubated for 15 minutes, at 37° C. After 15 minutes, the stimulant GROα was diluted to 100 nM in 0.1% BSA (Albumin Bovine Serum)-PBS and 5 uL is dispensed across the whole plate for a final concentration of 33 nM. The plate was gently tapped and incubated further for 15 minutes at 37° C. The plate was placed on ice for 1 minute before addition of 10 uL of an antibody cocktail consisting of CD11b-FITC (40 ug/mL) purchased from BioLegend (address: Cambridge Bioscience, Munro House, Trafalgar Way, Bar Hill, Cambridge, UK) and CD16-PE purchased from BD Pharmingen (address: The Danby Building, Edmung Halley Road, Oxford Science Park, Oxford, UK) (stock concentration 100 tests, 2 mL stock volume is diluted 1 in 5). The plate was placed on ice for 1 hour in the dark. The cells were then fixed using 200 uL/well of 1×FACS (Flow Activated Cell Sorting) Lyse solution (Becton and Dickinson-BD) and on ice for 20 minutes in the dark. The plate was centrifuged at 1600 rpm for 5 minutes and re-suspended with 200 uL of ice cold PBS. This step was repeated twice and on the final step the plate was re-suspended with 50 uL of ice cold -PBS for flow Cytometric analysis.
Samples were run on a Becton and Dickinson (BD)-Acurri C6 Flow Cytometer using a HyperCyt sampling apparatus (IntelliCyt) with a flow rate 2 uL/sec. CD11b upregulation is monitored in neutrophils and identified using a combination of both side scatter and CD16 expression.

| SMILES | IC50 [1] | IC50 [2] | IC50 ([2]; Homo sapiens) |
| --- | --- | --- | --- |
| CC(C)(C1COC1)S(=O)(=O)c1c(Cl)ccc(NC(=O)N[C@@H]2CCC=C2Cl)c1O [Compound 5, (R)-1-(4-chloro-2-hydroxy-3-((2-(oxetan-3-yl)propan-2-yl)sulfonyl)phenyl)-3-(2-chlorocyclopent-2-en-1-yl)urea] | ≤ 10 nM | 25.1 to 2510 nM |  |
| CC1=CCCC1NC(=O)Nc1ccc(Cl)c(S(=O)(=O)C(C)C)c1O (centres unmarked) [Compound 20, 1-(4-chloro-2-hydroxy-3-(isopropylsulfonyl)phenyl)-3-(2-methylcyclopent-2-en-1-yl)urea] | ≤ 1 nM | 25.1 to 2510 nM |  |
| CC1=CCC[C@H]1NC(=O)Nc1ccc(Cl)c(S(=O)(=O)C(C)c2ccccn2)c1O (stereo partly drawn) [Compound 23, 1-(4-chloro-2-hydroxy-3-((1-(pyridin-2-yl)ethyl)sulfonyl)phenyl)-3-((R)-2-methylcyclopent-2-en-1-yl)urea, trifluoroacetic acid salt] | ≤ 1 nM | 25.1 to 2510 nM |  |
| CC1=CCC[C@H]1NC(=O)Nc1ccc(Cl)c(S(=O)(=O)C(C)c2ncccn2)c1O (stereo partly drawn) [Compound 27, 1-(4-chloro-2-hydroxy-3-((1-(pyrimidin-2-yl)ethyl)sulfonyl)phenyl)-3-((R)-2-methylcyclopent-2-en-1-yl)urea] | ≤ 10 nM | 25.1 to 2510 nM |  |
| CC1=CCC[C@H]1NC(=O)Nc1ccc(C#N)c(S(=O)(=O)C(C)(C)C(F)(F)F)c1O [Compound 31, (R)-1-(4-cyano-2-hydroxy-3-((1,1,1-trifluoro-2-methylpropan-2-yl)sulfonyl)phenyl)-3-(2-methylcyclopent-2-en-1-yl)urea] | ≤ 1 nM | 25.1 to 2510 nM |  |
| CC1(S(=O)(=O)c2c(Cl)ccc(NC(=O)N[C@@H]3CCC=C3Cl)c2O)CCOC1 (stereo partly drawn) [Compound 39, 1-(4-chloro-2-hydroxy-3-((3-methyltetrahydro-furan-3-yl)sulfonyl)phenyl)-3-((R)-2-chlorocyclopent-2-en-1-yl)urea] | ≤ 1 nM | 25.1 to 2510 nM |  |
| CC1(S(=O)(=O)c2c(Cl)ccc(NC(=O)N[C@@H]3CCC=C3Cl)c2O)CCOCC1 [Compound 40, (R)-1-(4-chloro-2-hydroxy-3-((4-methyltetrahydro-2H-pyran-4-yl)sulfonyl)phenyl)-3-(2-chlorocyclopent-2-en-1-yl)urea] | ≤ 10 nM | 25.1 to 2510 nM |  |
| [2H]C([2H])([2H])C1(S(=O)(=O)c2c(Cl)ccc(NC(=O)N[C@@H]3CCC=C3Cl)c2O)CCOCC1 [Compound 41] | ≤ 1 nM | 25.1 to 2510 nM |  |
| CC1(S(=O)(=O)c2c(Cl)ccc(NC(=O)N[C@H]3CCC=C3Cl)c2O)CCOCC1 [Compound 42, (S)-1-(4-chloro-2-hydroxy-3-((4-methyltetrahydro-2H-pyran-4-yl)sulfonyl)phenyl)-3-(2-chlorocyclopent-2-en-1-yl)urea] |  | 25.1 to 2510 nM |  |
| CC1=CCC[C@H]1NC(=O)Nc1ccc(Cl)c(S(=O)(=O)[C@H]2C[C@H](N3CC[C@@H](F)C3)C2)c1O [Compound 49, trans-1-(4-chloro-3-((3-((R)-3-fluoropyrrolidin-1-yl)cyclobutyl)sulfonyl)-2-hydroxyphenyl)-3-((R)-2-methylcyclopent-2-en-1-yl)urea, trifluoroacetic acid salt] | ≤ 1 nM | 25.1 to 2510 nM |  |
| CC1=CCC[C@H]1NC(=O)Nc1ccc(Cl)c(S(=O)(=O)C(C)(C)[C@H]2CCOC2)c1O [Compound 56, 1-(4-chloro-2-hydroxy-3-((2-((S)-tetrahydrofuran-3-yl)propan-2-yl)sulfonyl)phenyl)-3-((R)-2-methylcyclopent-2-en-1-yl)urea] | ≤ 10 nM | 25.1 to 2510 nM |  |
| CC1=CCC[C@H]1NC(=O)Nc1ccc(Cl)c(S(=O)(=O)C(C)(C)C)c1O [Compound 57] | ≤ 1 nM | 25.1 to 2510 nM |  |
| CC1=CCC[C@H]1NC(=O)Nc1ccc(Cl)c(S(=O)(=O)C(C)(C)C2CCOC2)c1O (stereo partly drawn) [Compound 59, 1-(4-chloro-2-hydroxy-3-((2-(tetrahydrofuran-3-yl)propan-2-yl)sulfonyl)phenyl)-3-((R)-2-methylcyclopent-2-en-1-yl)urea] | ≤ 1 nM | 25.1 to 2510 nM |  |
| CC1=CCC[C@H]1NC(=O)Nc1ccc(Cl)c(S(=O)(=O)C(C)(C)C2CCOCC2)c1O [Compound 60, (R)-1-(4-chloro-2-hydroxy-3-((2-(tetrahydro-2H-pyran-4-yl)propan-2-yl)sulfonyl)phenyl)-3-(2-methylcyclopent-2-en-1-yl)urea] | ≤ 1 nM | 25.1 to 2510 nM |  |
| CC1=CCC[C@H]1NC(=O)Nc1ccc(Cl)c(S(=O)(=O)C(C)(C)CF)c1O [Compound 62, (R)-1-(4-chloro-3-((1-fluoro-2-methylpropan-2-yl)sulfonyl)-2-hydroxyphenyl)-3-(2-methylcyclopent-2-en-1-yl)urea] | ≤ 1 nM | 25.1 to 2510 nM |  |

Now from value to compound:

| IC50 [1] | IC50 [2] | IC50 ([2]; Homo sapiens) | SMILES |
| --- | --- | --- | --- |
| ≤ 1 nM | 25.1 to 2510 nM |  | CO[C@@H]1CCC[C@H]1S(=O)(=O)c1c(Cl)ccc(NC(=O)N[C@@H]2CCC=C2C)c1O (racemic) [Compound 144, (±)trans-1-(4-chloro-2-hydroxy-3-((2-methoxycyclopent-yl)sulfonyl)phenyl)-3-((R)-2-methylcyclopent-2-en-1-yl)urea, trifluoroacetic acid salt] |
| ≤ 10 nM | 25.1 to 2510 nM |  | CC1=CCC[C@H]1NC(=O)Nc1ccc(Cl)c(S(=O)(=O)C2(C)CCCOC2)c1O (stereo partly drawn) [Compound 66, 1-(4-chloro-2-hydroxy-3-((3-methyltetrahydro-2H-pyran-3-yl)sulfonyl)phenyl)-3-((R)-2-methylcyclopent-2-en-1-yl)urea] |
| ≤ 10 nM |  | 25.1 to 2510 nM | CC1=CCC[C@H]1NC(=O)Nc1ccc(Cl)c(S(=O)(=O)C2(C)CCOC2)c1O (stereo partly drawn) [Compound 68, 1-(4-chloro-2-hydroxy-3-((3-methyltetrahydro-furan-3-yl)sulfonyl)phenyl)-3-((R)-2-methylcyclopent-2-en-1-yl)urea] |
| ≤ 1 nM | 25.1 to 2510 nM |  | CC1=CCC[C@H]1NC(=O)Nc1ccc(Cl)c(S(=O)(=O)C2(C)CCOCC2)c1O [Compound 69, (R)-1-(4-chloro-2-hydroxy-3-((4-methyltetrahydro-2H-pyran-4-yl)sulfonyl)phenyl)-3-(2-methylcyclopent-2-en-1-yl)urea] |
| ≤ 1 nM | 25.1 to 2510 nM |  | [2H]C([2H])([2H])C1(S(=O)(=O)c2c(Cl)ccc(NC(=O)N[C@@H]3CCC=C3C)c2O)CCOCC1 [Compound 70] |
| ≤ 10 nM | 25.1 to 2510 nM |  | CC1=CCC[C@H]1NC(=O)Nc1ccc(Cl)c(S(=O)(=O)C2(CF)CCOCC2)c1O [Compound 72, (R)-1-(4-chloro-3-((4-(fluoromethyl)tetra-hydro-2H-pyran-4-yl)sulfonyl)-2-hydroxyphenyl)-3-(2-methylcyclopent-2-en-1-yl)urea] |
| ≤ 1 nM | 25.1 to 2510 nM |  | CC1=CCC[C@H]1NC(=O)Nc1ccc(Cl)c(S(=O)(=O)C2(F)CCOCC2)c1O [Compound 75, (R)-1-(4-chloro-3-((4-fluorotetrahydro-2H-pyran-4-yl)sulfonyl)-2-hydroxyphenyl)-3-(2-methylcyclopent-2-en-1-yl)urea] |
| ≤ 1 nM | 25.1 to 2510 nM |  | CC1=CCC[C@H]1NC(=O)Nc1ccc(Cl)c(S(=O)(=O)C2CC(F)(F)C2)c1O [Compound 76, (R)-1-(4-chloro-3-((3,3-difluorocyclobutyl)sulfonyl)-2-hydroxyphenyl)-3-(2-methylcyclopent-2-en-1-yl)urea trifluoroacetic acid salt] |
| ≤ 10 nM | 25.1 to 2510 nM |  | CC1=CCC[C@H]1NC(=O)Nc1ccc(Cl)c(S(=O)(=O)C2CCCOC2)c1O (stereo partly drawn) [Compound 78, 1-(4-chloro-2-hydroxy-3-((tetrahydro-2H-pyran-3-yl)sulfonyl)phenyl)-3-((R)-2-methylcyclopent-2-en-1-yl)urea] |
